Data published in paper PMC12085125 (Drug Design, Development and Therapy, 2025).

Assays:
[1] = healthy male adults; cited from earlier work
[2] = test system: tofacitinib metabolism in rat liver microsomes (enzyme not specified); experiment: Inhibition of tofacitinib metabolism in rat liver microsomes; type: in vitro ADME; conditions: probe tofacitinib
[3] = cited from earlier work
rat liver microsomes = conditions: metabolism to M8, n=3
[4] = test system: cytochrome P450 3A4 (CYP3A4); conditions: cited from earlier work
[5] = test system: cytochrome P450 2C19 (CYP2C19); conditions: cited from earlier work
in vitro = conditions: Sprague-Dawley, rat, liver microsomes

| Structure (SMILES) | IC50 at 30 min [2] [nM] | increase of AUC of tofacitinib when combined [1] [%] | increase of Cmax of tofacitinib when combined [1] [%] | further results |
| --- | --- | --- | --- | --- |
| OC(Cn1cncn1)(Cn1cncn1)c1ccc(F)cc1F [Fluconazole] | – | 79 | 27 | – |
| CC(=O)N1CCN(c2ccc(OCC3COC(Cn4ccnc4)(c4ccc(Cl)cc4Cl)O3)cc2)CC1 (stereo not drawn) [Ketoconazole] | – | 103 | 16 | – |
| C[C@@H]1CCN(C(=O)CC#N)C[C@@H]1N(C)c1ncnc2[nH]ccc12 [Tofacitinib] | – | – | – | Vmax of tofacitinib enzyme kinetics (rat liver microsomes): 5.482 pmol/min/mg; share processed by CYP3A4 [4]: approximately 50%; share processed by CYP2C19 [5]: ~20%; Km at 30 min (in vitro): 37.3 µM |

The next lines start with results.

| IC50 at 30 min [2] [nM] | Structure (SMILES) | increase of AUC of tofacitinib when combined [1] [%] | increase of Cmax of tofacitinib when combined [1] [%] | further results |
| --- | --- | --- | --- | --- |
| 1140 | COc1ccc2c(c1)C(=O)N(CCc1ccc(S(=O)(=O)NC(=O)NC3CCCCC3)cc1)C(=O)C2(C)C [Gliquidone] | – | – | half-life ([3]; after oral administration): approximately 1.5 hours |
| 4060 | CC#CCn1c(N2CCC[C@@H](N)C2)nc2c1c(=O)n(Cc1nc(C)c3ccccc3n1)c(=O)n2C [Linagliptin] | – | – | bioavailability [3]: approximately 30% |
